Converted amounts (≈) assume the structure as drawn.
What was measured:
[1] = target: T1, Insulin-like growth factor 1 receptor (Homo sapiens, UniProt P08069); test: Inhibition of IGF1R (unknown origin)
[2] = target: T1, Insulin-like growth factor 1 receptor; test: Inhibition of IGF1R (unknown origin) at 1 uM relative to control
[3] = target: T2, Insulin receptor (Homo sapiens, UniProt P06213); test: Inhibition of INSR (unknown origin) at 1 uM relative to control
[4] = system: Mus musculus; test: Inhibition of EGFR exon 19 deletion activating mutant phosphorylation in human PC9 cells xenografted in SCID mouse at 10 mg/kg, po measured 1 hr post dose; type: functional; details: PC-9, 1 h
[5] = system: Mus musculus; test: Inhibition of EGFR exon 19 deletion activating mutant phosphorylation in human PC9 cells xenografted in SCID mouse at 10 mg/kg, po measured 6 hrs post dose; type: functional; details: PC-9, 6 h
[6] = system: Mus musculus; test: Inhibition of EGFR exon 19 deletion activating mutant phosphorylation in human PC9 cells xenografted in SCID mouse at 10 mg/kg, po measured 16 hrs post dose; type: functional; details: PC-9, 16 h
[7] = system: Mus musculus; test: Inhibition of EGFR exon 19 deletion activating mutant phosphorylation in human PC9 cells xenografted in SCID mouse at 10 mg/kg, po measured 24 hrs post dose; type: functional; details: PC-9, 24 h
[8] = system: Mus musculus; test: Inhibition of EGFR L858R/[…] double mutant phosphorylation in human NCI-H1975 cells xenografted in SCID mouse at 10 mg/kg, po measured 1 hr post dose; type: functional; details: NCI-H1975, 1 h
[9] = system: Mus musculus; test: Inhibition of EGFR L858R/[…] double mutant phosphorylation in human NCI-H1975 cells xenografted in SCID mouse at 10 mg/kg, po measured 6 hrs post dose; type: functional; details: NCI-H1975, 6 h
[10] = system: Mus musculus; test: Inhibition of EGFR L858R/[…] double mutant phosphorylation in human NCI-H1975 cells xenografted in SCID mouse at 10 mg/kg, po measured 16 hrs post dose; type: functional; details: NCI-H1975, 16 h
[11] = system: Mus musculus; test: Inhibition of EGFR L858R/[…] double mutant phosphorylation in human NCI-H1975 cells xenografted in SCID mouse at 10 mg/kg, po measured 24 hrs post dose; type: functional; details: NCI-H1975, 24 h
[12] = system: Mus musculus; test: Inhibition of EGFR L858R/[…] double mutant phosphorylation in human NCI-H1975 cells xenografted in SCID mouse at 10 mg/kg, po measured 30 hrs post dose; type: functional; details: NCI-H1975, 30 h
[13] = system: NCI-H1975; test: Antitumor activity against human NCI-H1975 cells harboring EGFR L858R/[…] double mutant xenografted in SCID mouse assessed as tumor growth inhibition at 10 mg/kg/day, po qd for 7 days relative to control; type: functional; details: Mus musculus, NCI-H1975, 168 h, read-out: TGI
[14] = Antitumor activity against human PC9 cells harboring EGFR exon 19 deletion activating mutant xenografted in SCID mouse assessed as tumor growth inhibition at 10 mg/kg/day, po qd for 7 days relative to control; type: functional, PC-9; details: Homo sapiens, PC-9, 168 h, read-out: TGI
[15] = system: A-431; test: Antitumor activity against human A431 cells xenografted in SCID mouse assessed as tumor growth inhibition at 10 mg/kg/day, po qd for 7 days relative to control; type: functional; details: Mus musculus, A-431, 168 h, read-out: TGI
[16] = target: T2, Insulin receptor; test: Inhibition of INSR (unknown origin)
[17] = Lipophilicity, log D of the compound at pH 7.4; type: physicochemical; details: buffer
[18] = target: Epidermal growth factor receptor (Homo sapiens, UniProt P00533, L858R/T790M); test: Inhibition of EGFR L858R/T790M double mutant phosphorylation in human NCI-H1975 cells after 2 hrs by fluorescence assay; type: cell-based
[19] = target: Epidermal growth factor receptor (Homo sapiens, UniProt P00533, EX19DEL); test: Inhibition of EGFR exon 19 deletion activating mutant phosphorylation in human PC9 cells after 2 hrs by fluorescence assay; type: cell-based, PC-9
[20] = target: Epidermal growth factor receptor (Homo sapiens, UniProt P00533); test: Inhibition of wild type EGFR phosphorylation in human LoVo cells after 2 hrs by fluorescence assay; type: cell-based
[21] = Intrinsic clearance in mouse hepatocytes measured per 10^6 cells; type: ADME, cell-based, Hepatocyte; details: read-out: CLH
[22] = Thermodynamic solubility of the compound at pH 7.4; type: physicochemical; details: buffer, read-out: Therm_solubility

T1 sequence (P08069 31-736 limits assumed): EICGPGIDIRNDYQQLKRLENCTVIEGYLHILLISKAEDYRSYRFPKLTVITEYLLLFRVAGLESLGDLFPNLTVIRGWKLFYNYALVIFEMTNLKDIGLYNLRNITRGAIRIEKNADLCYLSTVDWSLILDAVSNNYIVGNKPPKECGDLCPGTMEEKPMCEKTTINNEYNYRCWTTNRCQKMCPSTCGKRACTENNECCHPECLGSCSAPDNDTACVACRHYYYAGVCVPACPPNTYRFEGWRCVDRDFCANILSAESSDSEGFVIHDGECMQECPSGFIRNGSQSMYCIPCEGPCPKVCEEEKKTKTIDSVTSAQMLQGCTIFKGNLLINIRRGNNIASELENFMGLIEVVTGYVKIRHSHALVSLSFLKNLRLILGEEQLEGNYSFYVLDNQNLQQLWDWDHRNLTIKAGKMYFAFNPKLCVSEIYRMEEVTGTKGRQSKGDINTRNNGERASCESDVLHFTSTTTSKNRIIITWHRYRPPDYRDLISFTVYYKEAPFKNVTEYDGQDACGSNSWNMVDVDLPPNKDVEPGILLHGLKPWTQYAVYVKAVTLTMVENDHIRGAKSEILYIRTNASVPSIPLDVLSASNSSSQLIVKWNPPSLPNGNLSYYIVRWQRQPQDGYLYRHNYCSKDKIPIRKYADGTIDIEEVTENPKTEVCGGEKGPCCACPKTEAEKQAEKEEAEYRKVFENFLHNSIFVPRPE
T1 sequence (P08069 741-1367 limits assumed): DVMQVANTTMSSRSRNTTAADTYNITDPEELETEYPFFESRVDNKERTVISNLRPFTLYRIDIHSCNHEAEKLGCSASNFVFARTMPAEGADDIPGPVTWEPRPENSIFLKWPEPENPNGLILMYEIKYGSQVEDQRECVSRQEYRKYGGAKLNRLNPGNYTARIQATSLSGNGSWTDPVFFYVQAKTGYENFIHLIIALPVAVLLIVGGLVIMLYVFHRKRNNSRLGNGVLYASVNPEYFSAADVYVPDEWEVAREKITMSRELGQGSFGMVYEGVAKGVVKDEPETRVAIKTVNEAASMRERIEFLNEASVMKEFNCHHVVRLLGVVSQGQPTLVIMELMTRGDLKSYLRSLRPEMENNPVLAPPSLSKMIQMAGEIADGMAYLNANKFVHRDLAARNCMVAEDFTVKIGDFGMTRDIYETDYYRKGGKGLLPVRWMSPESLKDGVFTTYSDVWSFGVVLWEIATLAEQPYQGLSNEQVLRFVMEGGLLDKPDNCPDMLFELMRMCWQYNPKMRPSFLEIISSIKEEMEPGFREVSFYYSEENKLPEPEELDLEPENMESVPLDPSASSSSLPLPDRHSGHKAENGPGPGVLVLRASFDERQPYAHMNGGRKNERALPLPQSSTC
T2 sequence (P06213 28-758 limits assumed): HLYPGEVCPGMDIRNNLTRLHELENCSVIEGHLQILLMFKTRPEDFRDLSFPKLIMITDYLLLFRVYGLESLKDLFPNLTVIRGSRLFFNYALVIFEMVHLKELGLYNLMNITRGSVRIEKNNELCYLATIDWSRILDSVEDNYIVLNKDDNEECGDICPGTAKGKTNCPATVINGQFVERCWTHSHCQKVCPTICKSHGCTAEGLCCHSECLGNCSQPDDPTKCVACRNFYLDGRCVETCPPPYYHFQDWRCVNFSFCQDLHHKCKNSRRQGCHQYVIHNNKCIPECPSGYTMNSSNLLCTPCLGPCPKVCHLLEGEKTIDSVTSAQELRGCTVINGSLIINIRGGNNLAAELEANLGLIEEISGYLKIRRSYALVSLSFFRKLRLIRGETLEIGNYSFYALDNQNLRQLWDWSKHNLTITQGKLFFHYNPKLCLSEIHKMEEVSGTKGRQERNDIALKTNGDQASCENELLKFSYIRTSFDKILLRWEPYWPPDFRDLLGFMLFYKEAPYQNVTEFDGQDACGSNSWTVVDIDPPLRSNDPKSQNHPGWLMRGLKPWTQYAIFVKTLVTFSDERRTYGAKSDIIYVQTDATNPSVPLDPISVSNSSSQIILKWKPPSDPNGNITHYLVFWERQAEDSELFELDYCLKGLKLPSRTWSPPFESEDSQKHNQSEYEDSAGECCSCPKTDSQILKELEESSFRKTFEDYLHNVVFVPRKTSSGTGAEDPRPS
T2 sequence (P06213 763-1382 limits assumed): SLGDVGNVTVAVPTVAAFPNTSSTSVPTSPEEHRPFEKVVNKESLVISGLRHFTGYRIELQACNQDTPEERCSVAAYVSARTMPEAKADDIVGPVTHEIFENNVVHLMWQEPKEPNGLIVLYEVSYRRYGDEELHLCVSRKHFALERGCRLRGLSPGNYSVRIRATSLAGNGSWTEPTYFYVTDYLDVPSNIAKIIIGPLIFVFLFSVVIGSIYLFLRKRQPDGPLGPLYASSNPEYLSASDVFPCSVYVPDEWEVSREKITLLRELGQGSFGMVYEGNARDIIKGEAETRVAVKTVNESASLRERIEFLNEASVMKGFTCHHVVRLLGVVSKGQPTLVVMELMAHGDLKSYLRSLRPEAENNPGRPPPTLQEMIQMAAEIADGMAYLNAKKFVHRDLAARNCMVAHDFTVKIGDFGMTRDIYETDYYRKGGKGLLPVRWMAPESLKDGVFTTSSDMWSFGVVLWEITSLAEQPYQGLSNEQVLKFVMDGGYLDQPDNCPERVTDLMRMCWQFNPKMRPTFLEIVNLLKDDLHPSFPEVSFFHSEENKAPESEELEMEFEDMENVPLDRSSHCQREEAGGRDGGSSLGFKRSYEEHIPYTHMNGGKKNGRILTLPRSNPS
Sequence of Epidermal growth factor receptor (Homo sapiens, UniProt P00533, L858R/T790M) (P00533 25-1210 T790M/L858R limits assumed): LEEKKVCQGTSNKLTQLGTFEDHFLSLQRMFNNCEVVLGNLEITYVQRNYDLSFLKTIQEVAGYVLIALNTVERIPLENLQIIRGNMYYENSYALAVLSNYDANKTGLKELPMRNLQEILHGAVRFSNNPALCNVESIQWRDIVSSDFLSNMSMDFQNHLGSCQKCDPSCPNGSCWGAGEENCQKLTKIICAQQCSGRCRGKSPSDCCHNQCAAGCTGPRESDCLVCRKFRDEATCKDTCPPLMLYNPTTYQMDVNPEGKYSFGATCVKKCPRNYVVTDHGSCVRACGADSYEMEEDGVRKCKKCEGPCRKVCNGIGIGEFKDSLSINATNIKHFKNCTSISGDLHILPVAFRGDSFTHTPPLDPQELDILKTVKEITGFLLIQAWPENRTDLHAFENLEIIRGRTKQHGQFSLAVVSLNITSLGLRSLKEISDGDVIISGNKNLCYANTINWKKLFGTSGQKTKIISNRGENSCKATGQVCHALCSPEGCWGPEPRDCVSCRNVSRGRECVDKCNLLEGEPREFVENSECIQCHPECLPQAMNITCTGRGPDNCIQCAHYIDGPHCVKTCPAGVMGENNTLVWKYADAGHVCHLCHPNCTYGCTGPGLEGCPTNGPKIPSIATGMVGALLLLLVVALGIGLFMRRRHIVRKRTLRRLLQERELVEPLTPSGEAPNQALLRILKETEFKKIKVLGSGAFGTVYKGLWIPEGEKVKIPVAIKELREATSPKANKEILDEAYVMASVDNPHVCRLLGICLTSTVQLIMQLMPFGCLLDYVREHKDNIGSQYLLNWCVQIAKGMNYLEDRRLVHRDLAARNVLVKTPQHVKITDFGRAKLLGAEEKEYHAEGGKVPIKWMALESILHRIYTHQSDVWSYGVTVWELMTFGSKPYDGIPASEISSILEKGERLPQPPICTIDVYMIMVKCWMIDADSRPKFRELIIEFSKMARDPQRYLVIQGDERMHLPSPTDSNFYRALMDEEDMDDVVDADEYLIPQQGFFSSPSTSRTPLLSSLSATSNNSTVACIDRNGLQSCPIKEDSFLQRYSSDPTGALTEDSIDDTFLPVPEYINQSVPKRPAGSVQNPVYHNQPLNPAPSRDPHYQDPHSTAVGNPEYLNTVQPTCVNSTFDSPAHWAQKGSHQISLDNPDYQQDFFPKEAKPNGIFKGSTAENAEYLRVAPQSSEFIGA
Sequence of Epidermal growth factor receptor (Homo sapiens, UniProt P00533, EX19DEL) (P00533 whole entry, looked up, stated change not applied): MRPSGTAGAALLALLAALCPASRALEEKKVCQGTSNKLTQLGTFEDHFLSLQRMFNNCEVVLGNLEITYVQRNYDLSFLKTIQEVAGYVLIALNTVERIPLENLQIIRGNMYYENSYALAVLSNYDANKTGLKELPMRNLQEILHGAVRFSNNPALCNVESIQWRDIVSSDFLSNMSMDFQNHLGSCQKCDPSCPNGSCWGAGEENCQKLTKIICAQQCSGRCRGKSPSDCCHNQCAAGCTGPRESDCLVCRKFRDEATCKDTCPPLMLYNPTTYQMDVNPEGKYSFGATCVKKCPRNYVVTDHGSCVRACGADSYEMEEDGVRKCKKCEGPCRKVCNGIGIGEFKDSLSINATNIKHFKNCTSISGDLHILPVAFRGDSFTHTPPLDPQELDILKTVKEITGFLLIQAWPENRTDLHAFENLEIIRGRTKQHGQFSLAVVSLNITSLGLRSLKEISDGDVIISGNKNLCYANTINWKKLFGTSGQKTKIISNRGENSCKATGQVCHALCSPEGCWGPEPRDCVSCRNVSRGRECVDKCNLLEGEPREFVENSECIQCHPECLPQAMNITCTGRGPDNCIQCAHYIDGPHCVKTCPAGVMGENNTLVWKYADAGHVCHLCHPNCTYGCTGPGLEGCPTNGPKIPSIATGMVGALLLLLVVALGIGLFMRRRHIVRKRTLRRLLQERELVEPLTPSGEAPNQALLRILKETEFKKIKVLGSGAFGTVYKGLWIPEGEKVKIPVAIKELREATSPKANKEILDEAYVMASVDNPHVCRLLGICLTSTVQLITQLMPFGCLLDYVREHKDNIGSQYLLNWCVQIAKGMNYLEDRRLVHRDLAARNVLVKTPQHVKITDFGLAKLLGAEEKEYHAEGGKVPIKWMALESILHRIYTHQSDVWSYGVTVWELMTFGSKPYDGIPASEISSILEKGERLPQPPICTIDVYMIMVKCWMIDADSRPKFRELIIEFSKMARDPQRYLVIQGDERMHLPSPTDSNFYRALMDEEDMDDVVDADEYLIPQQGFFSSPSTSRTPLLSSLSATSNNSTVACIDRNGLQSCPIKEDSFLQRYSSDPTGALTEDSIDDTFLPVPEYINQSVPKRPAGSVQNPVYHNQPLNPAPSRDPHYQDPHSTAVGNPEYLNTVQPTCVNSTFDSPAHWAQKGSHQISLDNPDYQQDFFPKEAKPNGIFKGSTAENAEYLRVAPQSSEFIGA

C=CC(=O)Nc1cc(Nc2ncc(Cl)c(-c3cnn4ccccc34)n2)c(OC)cc1N1CC(N(C)C)C1
IC50 [1]: 26 nM | inhibition [2]: 97% | inhibition [3]: 98% | inhibition in vivo at 10 mg/kg [4]: 57% | inhibition in vivo at 10 mg/kg [5]: 85% | inhibition in vivo at 10 mg/kg [6]: 52% | inhibition in vivo at 10 mg/kg [7]: 19% | inhibition in vivo at 10 mg/kg [8]: 37% | inhibition in vivo at 10 mg/kg [9]: 99% | inhibition in vivo at 10 mg/kg [10]: 82% | inhibition in vivo at 10 mg/kg [11]: 79% | inhibition in vivo at 10 mg/kg [12]: 50% | inhibition in vivo at 10 mg/kg/day [13]: 113% | inhibition in vivo at 10 mg/kg/day [14]: 169% | inhibition in vivo at 10 mg/kg/day [15]: 16% | IC50 [16]: 35 nM

C=CC(=O)Nc1cc(Nc2ncc(Cl)c(-c3cnn4ccccc34)n2)c(OC)cc1N1CCN(C(=O)[C@@H](C)N)CC1
logD [17]: 2.1

C=CC(=O)Nc1cc(Nc2ncc(Cl)c(-c3cnn4ccccc34)n2)c(OC)cc1N1CCN(C(=O)CN(C)C)CC1
logD [17]: 2.6

C=CC(=O)Nc1cc(Nc2ncc(C)c(-c3cn(C)c4ccccc34)n2)c(OC)cc1N(C)CCN(C)C
IC50 [1]: 196 nM

C=CC(=O)Nc1cc(Nc2ncc(Cl)c(-c3cnn4ccccc34)n2)c(OC)cc1N1CCN(C(=O)[C@@H]2CCCCN2)CC1
logD [17]: 2.2

C=CC(=O)Nc1cc(Nc2ncc(Cl)c(-c3cnn4ccccc34)n2)c(OC)cc1N1CCN(C(=O)[C@H]2CCCCN2)CC1
logD [17]: 2.2

C=CC(=O)Nc1cc(Nc2ncc(Cl)c(-c3cnn4ccccc34)n2)c(OC)cc1N1CCN(C(=O)CNC)CC1
logD [17]: 1.8

C=CC(=O)Nc1cc(Nc2ncc(Cl)c(-c3cnn4ccccc34)n2)c(OC)cc1N1CCN(C(=O)N2CCNCC2)CC1
logD [17]: 2

C=CC(=O)Nc1cc(Nc2nccc(-c3c[nH]c4ccccc34)n2)c(OC)cc1N1CCN(C)CC1
IC50 [18]: 63 nM | IC50 [19]: 15 nM | IC50 [20]: 1200 nM | hepatocyte CLint [21]: 53 µL/min/1e6 cells | solubility thermodynamic [22]: 828 µM (≈ 400 µg/mL) | IC50 [1]: 813 nM

Reference: ChEMBL document CHEMBL3351341, “Discovery of a potent and selective EGFR inhibitor (AZD9291) of both sensitizing and T790M resistance mutations that spares the wild type form of the receptor” (J Med Chem, 2014)
